Biological target: T1, TRβ (Homo sapiens, UniProt P10828)
T1 sequence (P10828 1-461): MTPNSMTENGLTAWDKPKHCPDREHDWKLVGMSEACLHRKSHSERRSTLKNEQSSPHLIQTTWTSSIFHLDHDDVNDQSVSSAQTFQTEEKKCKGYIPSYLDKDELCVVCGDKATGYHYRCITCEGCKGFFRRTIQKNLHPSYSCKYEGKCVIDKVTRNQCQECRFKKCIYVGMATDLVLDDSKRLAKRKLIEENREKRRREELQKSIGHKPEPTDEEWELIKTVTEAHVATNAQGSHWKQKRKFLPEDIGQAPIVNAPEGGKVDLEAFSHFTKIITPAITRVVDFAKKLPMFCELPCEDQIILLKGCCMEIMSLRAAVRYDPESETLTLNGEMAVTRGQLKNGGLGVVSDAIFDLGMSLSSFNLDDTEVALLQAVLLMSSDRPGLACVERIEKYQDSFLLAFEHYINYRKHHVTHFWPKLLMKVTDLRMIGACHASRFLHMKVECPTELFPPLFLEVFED
Experiment: ΔSV-CAT reporter cotransfection assay in CV-1 cells with TRβ expression plasmid, ±T3
Assay type: cell-based
Design: expressed in transfected cells; host or cells: CV-1 (monkey kidney)
Details: TRβ expression vector
Text: Receptor expression plasmids used in the following cotransfection assays have been described previously (pRShTRβ [see Thompson, et al., Proc. Natl. Acad. Sci. U.S.A. 86: 3494-3498 (1989)]; pRShRARα [see Giguere, et al., Nature 330: 624-629 (1987)]; pRShRARβ and pRshRARγ [see Ishikawa, et al., Mol. Endocrinol, 4: 837-844 (1990)]; and pRShVDR, [Schule, et al., Cell 61: 497-504 (1990)]. A basal reporter plasmid ΔSV-CAT was constructed by replacing the TK promoter in TK-CAT [Damm, et al., Nature 339: 593-597 (1989)] with the SphI-HindIII fragment of the SV40 early promoter. All of the recombinant CAT reporter plasmids used herein harbor a single copy of the indicated oligonucleotides at the unique HindIII site upstream of the SV40 promoter. […] To improve production of receptor proteins in COS cells, a new eukaryotic expression vector pCMX was prepared by modifying the plasmid CDM8 [Seed, B., Nature 329: 840-842 (1987)]. The CDM8 was cut with MluI and StuI in order to release the DNA fragment encoding the CMV/T7 promoter, SV40 small t intron/poly A signal, polyoma virus enhancer/origin, and SV40 enhancer/origin. The resulting fragment was ligated to a larger fragment of PvuII-digested PUC19. An internal deletion was introduced between unique BamHI and BclI sites present in the DCM8 portion. The stuffer sequence flanked by XbaI sites was replaced with a synthetic polylinker coding for 5′-KpnI/Asp718-EcoRV-BamHI -MscI-NheI-3′, followed by a stretch of 5′-[…]-3′ (SEQ ID NO:48) which can function as a universal termination signal for protein translation. The coding sequence of the luciferase [de Wet, et al., Mol. Cell. Biol. 7: 725-737 (1987)] and human TRβ, RARα, and VDR was placed in the polylinker region of the pCMX, generating pCMX-LUC, Pcmx-Htrβ, pCMX-hRARα, and pCMX-hVDR, respectively. The translation start site of the RARα was modified to […] by attaching the synthetic linker encoding a consensus translation start signal [Hollenberg, et al., Cell 55: 899-906 (1988)].
For cotransfection assays, a monkey kidney cell line CV-1 was kept in Dulbecco's modified Eagle's medium (DMEM) supplemented with 10% charcoal-resin double split calf bovine serum. Transfections were performed via calcium-phosphate precipitation method as described by Umesono, et al. in Cell 57: 1139-1146 (1989), with 0.5 μg of a pRS receptor expression plasmid, 1.0 μg of a reporter CAT plasmid, 5 μg of pRAS-βGAL [Umesono, et al., Cell 57: 1139-1146 (1989)] as an internal control, and 8.5 μg of carrier plasmid pUC19. The cells were transfected for 8 hours; after washing the DNA precipitates, the cells were then incubated for an additional 36 hours with or without the ligand (T3, 100 nM; RA, 1 μM; 1,25-(OH)2 vitamin D3, 100 nM). Cell extracts were prepared for βGAL and CAT assays, as described by Umesono, et al., supra. Transfection of F9 teratocarcinoma cells was carried out employing a similar method except the cells were incubated for 12 hours in the presence of the DNA precipitates, and the RA was added at 1 μM for another 24 hours before harvesting the cells. 2, 5, and 4 μg of the reporter, pRAS-βGAL, and pUC19 were used, respectively.
Target hormone response elements described in FIG. 3 were synthesized as double-stranded oligonucleotides with an overhanging tetranucleotide (5′-agct-3′) at both ends. A single copy of these oligonucleotides was cloned at the unique HindIII site present in the basal promoter CAT construct ΔSV-CAT. Capitalized portions in the nucleotide sequences correspond to those found in the natural promoters except TREp and rGH21, which are synthetic. Bold letters indicate the “AGGTCA” motif and “X” denotes a nucleotide substitution from this motif.

Substance | T3 responsiveness (in words)
TREp: optimized palindromic rat growth hormone TRE (SEQ ID NO:10) (AGCTTCAGGTCATGACCTGAGAGCT; DNA, backbone not given here; double-stranded response element with agct overhangs, cloned into reporter plasmid) [reference compound] | responsive to T3
GDR-3: identical to DR-3 except half-site changed to AGAACA, a GRE half-site (SEQ ID NO:26) (AGCTTCAGAACAAGGAGAACAGAGAGCT; DNA, backbone not given here; double-stranded DNA response element with agct overhangs, cloned into reporter) | completely inactive
GDR-4: identical to DR-4 except half-site changed to AGAACA, a GRE half-site (SEQ ID NO:28) (AGCTTCAGAACACAGGAGAACAGAGAGCT; DNA, backbone not given here; double-stranded DNA response element with agct overhangs, cloned into reporter) | completely inactive

Reference: US6492137B1, “Response element compositions and assays employing same” (The Salk Institute for Biological Studies, priority 1989, dated 2002)
